Assay results taken from ChEMBL document CHEMBL3867466, “Synthesis and biological evaluation of novel 2,4,5-triarylimidazole-1,2,3-triazole derivatives via click chemistry as α-glucosidase inhibitors” (Bioorg Med Chem Lett, 2016).

Molecular target: Alpha-glucosidase MAL12 (Saccharomyces cerevisiae) (UniProt P53341)
Test: Potency index, ratio of acarbose IC50 to compound IC50 for bakers yeast alpha-glucosidase

Alpha-glucosidase MAL12 (Saccharomyces cerevisiae), sequence (P53341 whole entry, looked up): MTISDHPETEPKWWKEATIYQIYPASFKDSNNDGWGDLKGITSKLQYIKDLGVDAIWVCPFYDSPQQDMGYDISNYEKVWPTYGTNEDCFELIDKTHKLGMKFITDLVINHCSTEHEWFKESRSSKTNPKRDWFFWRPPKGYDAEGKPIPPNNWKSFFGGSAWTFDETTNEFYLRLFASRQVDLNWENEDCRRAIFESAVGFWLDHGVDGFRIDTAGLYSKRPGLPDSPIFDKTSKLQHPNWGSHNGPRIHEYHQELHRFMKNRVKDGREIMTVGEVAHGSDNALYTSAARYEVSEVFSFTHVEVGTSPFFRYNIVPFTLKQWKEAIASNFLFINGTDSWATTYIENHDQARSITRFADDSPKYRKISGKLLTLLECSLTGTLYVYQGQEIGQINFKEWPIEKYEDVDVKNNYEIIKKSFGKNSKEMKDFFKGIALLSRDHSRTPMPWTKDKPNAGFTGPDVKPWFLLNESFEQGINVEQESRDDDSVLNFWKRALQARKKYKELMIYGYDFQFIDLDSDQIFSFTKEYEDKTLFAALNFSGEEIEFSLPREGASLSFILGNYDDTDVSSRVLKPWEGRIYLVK

## CCOc1ccccc1NC(=O)Cn1cc(Cn2c(-c3cccc(Br)c3)nc(-c3ccccc3)c2-c2ccccc2)nn1
  Ratio IC50: 52
